Measured values reported in patent US5756121A, “Antibiotic formulation and use for drug resistant infections” (NeXstar Pharmaceuticals, Inc., priority 1995, dated 1998).
“And” between values parts separate entries of the source, which are not always exact repeats. Equal values may be shown once. “Also recorded” adds a separate entry of the source. Read-outs that look alike come from different tables or passages of the source.

Test system: M. tuberculosis, drug resistant strain Vertulla
Type: cell-based, Mycobacterium tuberculosis (in human macrophages)
Conditions: for CFU: duplicate values

With `NCC[C@H](O)C(=O)N[C@@H]1C[C@H](N)[C@@H](O[C@H]2O[C@H](CN)[C@@H](O)[C@H](O)[C@H]2O)[C@H](O)[C@H]1O[C@H]1O[C@H](CO)[C@@H](O)[C@H](N)[C@H]1O` [amikacin] the CFU (4 μg/ml, day 4) was 9.3 1 × 10^3 cfu per monolayer and 8.0 1 × 10^3 cfu per monolayer, the CFU (8 μg/ml, day 4) was 5 1 × 10^3 cfu per monolayer and 4 1 × 10^3 cfu per monolayer and the CFU (8 μg/ml, day 7) was 4.5 1 × 10^3 cfu per monolayer and 6.2 1 × 10^3 cfu per monolayer. The CFU (16 μg/ml, day 4) was 5 1 × 10^3 cfu per monolayer and 5.4 1 × 10^3 cfu per monolayer, the CFU (16 μg/ml, day 7) was 3.7 1 × 10^3 cfu per monolayer and 4.1 1 × 10^3 cfu per monolayer and the “inhibition / killing of drug resistant bacteria (in words)” value (4, 8 and 16 μg/ml, killing = fewer cfu than previous time point, listed as free amikacin) was “at the most, inhibition; also recorded: only inhibit the growth of the infection without killing”.
